# Test results reported in patent US8435561B2 (Besins Healthcare Luxembourg Sarl, priority 2001, dated 2013).
# Assay: Comparative particle size study (Mastersizer 2000 laser particle sizer)
# Assay type: physicochemical
# Details: in sesame seed oil, olive oil, colza oil or almond oil, compared to that obtained in peanut oil
compound,measurement,value
"CC(=O)[C@H]1CC[C@H]2[C@@H]3CCC4=CC(=O)CC[C@]4(C)[C@H]3CC[C@]12C [Micronized Progesterone, progesterone]",size distribution of progesterone,comparable
